US8092845B2, “Anti-inflammatory extract and agent and method for the production thereof” (Otkrytoe Aktsionernoe Obschestvo Zavod Ekologicheskoy …, priority 2004, dated 2012)

How the values were obtained:
[1] = system: peritonitis in mice; assay: acute exudative inflammation (peritonitis) caused by intraperitoneal injection of acetic acid, mice; format: in vivo; conditions: 8 mg/kg
Source text: (§1) The evaluation of the anti-inflammatory activity for Boswellik has been carried out in a model of the acute inflammatory process—peritonitis—in rats and mice, caused by the intraperitoneal injection of acetic acid.

[2] = system: peritonitis in rats; assay: acute exudative inflammation (peritonitis) caused by intraperitoneal injection of acetic acid, rats; format: in vivo; conditions: 8 mg/kg
Source text: as §1

[3] = system: nondescript mice; conditions: both, mouse, in vivo
Description: Diclofenac was used for the comparison of the therapeutic activity of Boswellik. Studies were performed on both male and female nondescript mice after oral administration of the preparations.

[4] = system: formalin-induced arthritis in rabbits; assay: formalin-induced arthritis in rabbits (hematology and joint histology)
Description: Experiments were carried out on 51 rabbits “Chinchilla” having a weight of 2800-3200 g. […] An arthritis model was caused by administration of 0.1 ml of a 2% formalin solution into the cavity of the knee joint—and a model of acute arthritis was obtained after twenty-four hours.
The investigated agent and diclofenac were administered according to the following regimen: for preventive purposes 4 days prior to simulation of the arthritis on time per day intragastrically via a probe and on the 4th day 4 hours prior to the administration of formalin.
Animals were euthanized under hexobarbital anesthesia after 3, 7 and 14 days after the induction of arthritis. Prior to beginning of the experiment and prior to euthanasia, blood was taken from the ear vein, and was used to determine hematologic parameters.
For a pathomorphological study, the joints were extracted together with the surrounding tissues and fixed in 10% neutral formalin.

[5] = system: isolated human blood cells; assay: in vitro synthesis of immunoglobulins by isolated human blood cells; format: cell-based
[6] = diclofenac 8 mg/kg, present agent 250 mg/kg
[7] = diclofenac 8 mg/kg, present agent 250 mg/kg, all observation periods

With `O=C(O)Cc1ccccc1Nc1c(Cl)cccc1Cl` [Diclofenac] the “Degree of the anti-exudative effect A = [Ro − Rk]/Rk100%” value [1] was 85%, the “Volume of the peritoneal exudate” value ([1]; n = 10) was 37 ± 2 µL and the “influence on the volume of the inflammatory exudate in the abdominal cavity” value ([2]; compared with Boswellik 100 and 130 mg/kg, rats and mice) was “considerably weaker influence”. The “Degree of the anti-exudative effect A = [Ro − Rk]/Rk100%” value ([2]; rats) was 24%, the “Volume of the peritoneal exudate” value ([2]; rats, n = 10) was 3350 ± 220 µL and the “safety index (ratio of ulcerogenicity/efficacy)” value [3] was 4.3-9.9. For the same compound, the “histological study of the joints, first observation” value ([4]; 3 days after the beginning (time printed for present agent only)) was “inflammatory and destructive changes were observed”, the “histological study of the joints, 7 days” value ([4]; 7 days) was “articulate surfaces had uneven outlines” and the “histological study of the joints, 14 days” value ([4]; 14 days) was “surface of articulate cartilages was smoothed down”. The “time until inflammatory process calmed down / destructive changes in articulate cartilages were reduced” value ([4]; diclofenac 8 mg/kg (most of the animals), present agent 250 mg/kg) was 14 days, the “average content of hemoglobin in the erythrocyte” value [4, 6] was “decreased” and the number of monocytes [4, 6] was “not changed”. For the same compound, the “number of erythrocytes and hemoglobin in the peripheral blood” value ([4]; diclofenac 8 mg/kg, present agent 250 mg/kg, intragastric, vs initial level) was “substantially reduced”, the number of granulocytes [4, 7] was “increased” and the number of leukocytes [4, 7] was “insignificantly reduced”. The level of thrombocytes ([4]; diclofenac 8 mg/kg, present agent 250 mg/kg, entire period of the study) was “decrease”, the hematocrit ([4]; diclofenac 8 mg/kg, present agent 250 mg/kg, whole period of observation) was “reduced” and the “influence on the synthesis of immunoglobulins” value [5] was “specific immunomodulating influence on the synthesis of immunoglobulins”.
